# Read-outs that look alike come from different tables or passages of the source.
# Tests used:
# [1] = target: T1, rNPFF-1 (Rattus norvegicus, UniProt Q9EP86); experiment: Radioligand binding assay, competitive displacement of [125I]1DMeNPFF at cloned NPFF receptors; conditions: cloned rat receptor
# T1 construct: expressed in transfected cells
# [2] = target: T2, rNPFF-2 (Rattus norvegicus, UniProt Q9EQD2); experiment: Functional activity (EC50 and intrinsic activity relative to NPFF); format: cell-based; conditions: for Functional Activity rNPFF-2 I.A. %: intrinsic activity as percentage of maximal response by NPFF
# T2 construct: expressed in transfected cells
# Source text: (§1) The data shown are representative of at least two independent experiments.
# [3] = target: T2, rNPFF-2; experiment: Radioligand binding assay, competitive displacement of [125I]1DMeNPFF at cloned NPFF receptors; conditions: cloned rat receptor
# [4] = target: T1, rNPFF-1; experiment: Functional activity (EC50 and intrinsic activity relative to NPFF); format: cell-based; conditions: for Functional Activity rNPFF-1 I.A. %: intrinsic activity as percentage of maximal response by NPFF; for EC50: tested 0.001 nM to 3600 nM
# Source text: as §1
# [5] = tested on: rat bladder; experiment: Distension-induced rhythmic contraction (DIRC) model, micturition reflex; format: in vivo; conditions: i.v.; for inhibition of bladder activity, persisted for: anesthetized rat, figure legend (FIG. 1, FIG. 2)
# Procedure: The effects of compounds on the micturition reflex were assessed in the “distension-induced rhythmic contraction” (DIRC) model (also called “volume-induced rhythmic contraction” model) in rats, as described in previous publications (e.g. Maggi, et al., 1987; Morikawa, et al., 1992; Guarneri, et al., 1993). This model is widely considered to be predictive for the actions of drugs to treat human urge incontinence (also referred to as detrusor instability or unstable bladder). Examples of drugs that are active in this model which also are used therapeutically in humans include oxybutynin and baclofen (Morikawa et al, 1992); imipramine and nortriptyline (36); and nifedipine and terodiline (37).
# Female Sprague Dawley rats weighing approximately 300 g were anesthetized with subcutaneous urethane ([…]). The trachea was cannulated with PE240 tubing to provide a clear airway throughout the experiment. A midline abdominal incision was made and the left and right ureters were isolated. The ureters were ligated distally (to prevent escape of fluids from the bladder) and cannulated proximally with PE10 tubing. The incision was closed using 4-0 silk sutures, leaving the PE10 lines routed to the exterior for the elimination of urine. The bladder was canulated via the transurethral route using PE50 tubing inserted 2.5 cm beyond the urethral opening. This cannula was secured to the tail using tape and connected to a pressure transducer. To prevent leakage from the bladder, the cannula was tied tightly to the exterior urethral opening using 4-0 silk.
# To initiate the micturition reflex, the bladder was first emptied by applying pressure to the lower abdomen, and then filled with normal saline in 100 μL increments (maximum=2 ml) until spontaneous bladder contractions occurred (typically 20-40 mmHg) at a rate of one contraction every 2 to 3 minutes. Once a regular rhythm was established, vehicle (saline) or test compounds were administered i.v. to examine their effects on bladder activity. The effect of a compound which inhibited the micturition reflex was expressed as its “disappearance time”, defined as the time between successive bladder contractions in the presence of the test compound minus the time between contractions before compound administration.
# Female Sprague Dawley rats weighing approximately 300 g were anesthetized with subcutaneous urethane (1.2 g/kg). The trachea was cannulated with PE240 tubing to provide a clear airway throughout the experiment. A midline abdominal incision was made and the left and right ureters were isolated. The ureters were ligated distally (to prevent escape of fluids from the bladder) and cannulated proximally with PE10 tubing. […]
# [6] = tested 0.001 nM to 3600 nM, read-out: Functional Activity rNPFF-2 EC50
# [7] = rat cloned NPFF receptors, by IA and Ki
# T1 sequence (Q9EP86 whole entry): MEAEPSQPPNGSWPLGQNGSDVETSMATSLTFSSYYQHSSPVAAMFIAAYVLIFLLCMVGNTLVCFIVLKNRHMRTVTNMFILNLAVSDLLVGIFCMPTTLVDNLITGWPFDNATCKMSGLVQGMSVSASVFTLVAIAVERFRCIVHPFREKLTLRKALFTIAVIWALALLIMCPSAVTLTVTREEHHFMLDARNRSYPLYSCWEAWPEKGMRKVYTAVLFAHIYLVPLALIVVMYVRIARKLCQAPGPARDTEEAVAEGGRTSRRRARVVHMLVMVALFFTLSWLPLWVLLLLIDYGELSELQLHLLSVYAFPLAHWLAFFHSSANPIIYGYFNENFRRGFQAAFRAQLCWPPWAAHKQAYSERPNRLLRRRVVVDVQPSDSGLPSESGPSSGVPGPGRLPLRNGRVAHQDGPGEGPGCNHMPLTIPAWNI
# T2 sequence (Q9EQD2 whole entry): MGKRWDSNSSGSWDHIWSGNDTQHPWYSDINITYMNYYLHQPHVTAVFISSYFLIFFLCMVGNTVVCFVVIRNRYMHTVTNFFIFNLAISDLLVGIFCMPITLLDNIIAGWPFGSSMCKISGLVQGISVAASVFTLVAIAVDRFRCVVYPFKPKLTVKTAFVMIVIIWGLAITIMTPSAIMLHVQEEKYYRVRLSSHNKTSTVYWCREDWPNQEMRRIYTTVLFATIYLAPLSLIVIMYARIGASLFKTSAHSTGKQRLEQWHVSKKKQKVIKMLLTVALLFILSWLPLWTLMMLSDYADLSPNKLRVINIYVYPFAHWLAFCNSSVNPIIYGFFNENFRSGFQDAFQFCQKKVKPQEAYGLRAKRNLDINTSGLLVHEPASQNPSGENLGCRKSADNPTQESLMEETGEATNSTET
Structure (SMILES),Ki [1] [nM],Functional Activity rNPFF-2 I.A. % [2] [%],"EC50 [2, 6] [nM]",Ki [3] [nM],Functional Activity rNPFF-1 I.A. % [4] [%],EC50 [4] [nM],EC50 [2] [nM],"classification agonist/antagonist at NPFF2 receptors [2, 7]","classification agonist/antagonist at NPFF1 receptors [4, 7]",inhibition of distention induced contractions of the rat bladder ([5]; 3 mg/kg),"inhibition of bladder activity, persisted for [5] [min]",inhibition of distention induced contractions of the rat bladder ([5]; 1 mg/kg)
N=C(N)NCCC[C@H](NS(=O)(=O)c1c(F)cccc1F)C(=O)N[C@H](Cc1ccccc1)C(N)=O [Compound 1032],1290,61,2760,> 10000,47,644,,,,,,
N=C(N)NCCC[C@H](NS(=O)(=O)c1ccc(F)cc1)C(=O)N[C@H](Cc1ccccc1)C(N)=O [Compound 1033],458,57,1940,> 10000,42,1600,,,,,,
N=C(N)NCCC[C@H](NS(=O)(=O)c1ccc([N+](=O)[O-])cc1[N+](=O)[O-])C(=O)N[C@@H](Cc1ccccc1)C(N)=O [Compound 2002],1390,05,,5490,34,,> 10000,,,,,
N=C(N)NCCC[C@@H](NS(=O)(=O)c1cccc2ccccc12)C(=O)N[C@@H](Cc1ccccc1)C(N)=O [Compound 3001],46,79,378,2860,1,> 10000,,agonist (an agonist has an intrinsic activity (IA)>15%),antagonist (an antagonist has a Ki≦1.2 μM and an intrinsic activity (IA)≦15%),,,
"Cc1ccc2c(C)cc(NC(=N)N)nc2c1 [N-(4,7-dimethyl-2-quinolinyl)guanidine]",,,,,,,,,,complete inhibition,12,
Cc1cc(NC(=N)N)nc2ccc(Cl)cc12 [N-(6-chloro-4-methyl-2-quinolinyl)guanidine],,,,,,,,,,,35,complete inhibition
"CN(C)c1cccc2c(S(=O)(=O)N[C@@H](CCCN=C(N)N)C(=O)N[C@@H](Cc3ccccc3)C(N)=O)cccc12 [dansyl-RFamide, reference compound]",88,96,2520,2310,106,524,,,,,,
